# Laboratory results: publication PMC3435245, “D-Alanylation of Lipoteichoic Acids Confers Resistance to Cationic Peptides in Group B Streptococcus by Increasing the Cell Wall Density” (PLoS Pathogens, 2012)
# Marks after values point to notes of the source that are not given here. Where a SMILES comes first, the peptide text is derived from it. Bridges are numbered along the chain shown (N, C = ends). [ ]: non-standard residue; d: D form. The star is where a group is joined. Heptanoyl(6-Me) = CC(C)CCCCC(=O)*; X1 = CC[C@H](C)CCCCC(=O)*; Dab = NCC[C@H](N)C(=O)O
# How the values were obtained:
# GBS NEM316 WT strain = type: cell-based, Streptococcus agalactiae; conditions: Todd-Hewitt broth with 100 mM HEPES, 2×10^6 CFU, 96-well polypropylene microplate, overnight 37°C, OD600 nm; average of triplicate measurements
# Description: (§1) The MICs of each antimicrobial peptide were tested in Todd-Hewitt broth (THB) buffered with 100 mM HEPES in 96-well polypropylene microplates (Costar, Cambridge, MA) by a dilution method. Bacteria (2×10^6 CFU) were added in triplicates to wells containing increasing concentrations of the antimicrobial peptides. Plates were incubated at 37°C with shaking overnight and then read (OD600 nm) using microplate reader (Labsystems Multiskanat) for bacterial growth. The MICs90 was considered to be the peptide concentration that inhibited 90% growth.
# GBS ΔdltA mutant = assay: MIC90 by dilution method, GBS ΔdltA; type: cell-based, Streptococcus agalactiae; conditions: for MIC90, ΔdltA: Todd-Hewitt broth with 100 mM HEPES, 2×10^6 CFU, 96-well polypropylene microplate, overnight 37°C, OD600 nm, average of triplicate measurements; for more active against the dltA mutant compared to the WT (fold dilution): from MICs of Table 2, statement for all natural peptides; for fold more active on the dltA mutant compared to the WT: from MICs, WT versus dltA mutant
# Description: as §1
# GBS ΔmprF mutant = assay: MIC90 by dilution method, GBS ΔmprF; type: cell-based, Streptococcus agalactiae; conditions: Todd-Hewitt broth with 100 mM HEPES, 2×10^6 CFU, 96-well polypropylene microplate, overnight 37°C, OD600 nm; average of triplicate measurements
# Description: as §1
# GBS Δlgt Δlsp mutant = assay: MIC90 by dilution method, GBS Δlgt Δlsp; type: cell-based, Streptococcus agalactiae; conditions: Todd-Hewitt broth with 100 mM HEPES, 2×10^6 CFU, 96-well polypropylene microplate, overnight 37°C, OD600 nm; average of triplicate measurements
# Description: as §1
# GBS ΔcpsD mutant = assay: MIC90 by dilution method, GBS ΔcpsD; type: cell-based, Streptococcus agalactiae; conditions: Todd-Hewitt broth with 100 mM HEPES, 2×10^6 CFU, 96-well polypropylene microplate, overnight 37°C, OD600 nm; average of triplicate measurements
# Description: as §1
# GBS ΔsrtA mutant = assay: MIC90 by dilution method, GBS ΔsrtA; type: cell-based, Streptococcus agalactiae; conditions: Todd-Hewitt broth with 100 mM HEPES, 2×10^6 CFU, 96-well polypropylene microplate, overnight 37°C, OD600 nm; average of triplicate measurements
# Description: as §1
# [1] = RP-HPLC hydrophobicity (% AcN at elution); type: physicochemical; conditions: chromatographic, C4 reverse analytical column; eluted in 40 min, linear gradient of acetonitrile 30 to 70% v/v in water containing TFA (0.05% v/v)
# Description: The procedure conducted as described previously. Briefly, peptides were synthesized using the Fmoc solid phase method on Rink amide resin ([…]). For fluorescent labeling of the N-terminus of the peptides, resin-bound peptides were treated with NBD or rhodamine dissolved in dimethyl formamide (DMF), washed thoroughly with DMF and then with methylene chloride, dried and then cleaved. […] The peptides were subjected to amino acid and mass spectrometry analysis to confirm their composition.
# GBS WT strain = assay: Rhodamine-labeled peptide fluorescence self-quenching on addition of bacteria (aggregation), WT; type: cell-based, Streptococcus agalactiae; conditions: rhodamine-labeled peptide 1 µM, self-quenching (aggregation) relative to basal signal of the peptide after addition of bacteria, room temperature; means of triplicate measurements from two independent experiments
# From the text: (§2) We further investigated whether the increased cell wall density resulting from D-alanylation of LTAs can reduce CAMPs penetration through the cell wall barrier by following the interaction of fluorescently labeled CAMPs with intact bacteria. […] Here, we investigated if the peptides display different aggregation states when bound to the WT or the dltA mutant strains. This was done by monitoring changes in the signal intensity of rhodamine-labeled peptides following their interaction with the bacterial surface under under high (160 mM NaCl) and low (16 mM NaCl) ionic strength conditions. Addition of bacteria to the rhodamine-labeled peptides induced self-quenching of fluorescence for all tested peptides. However, no significant difference in aggregation was found in the WT compared to the dltA strain (Figure 7A and Table 3).
# Real time tracking of the changes in the fluorescent signal of rhodamine or NBD labeled peptides was performed using an SLM-Aminco Bowman series 2-luminescence spectrophotometer (SLM-Aminco, Rochester, NY, USA) at room temperature. Typical spectral bandwidths were 5 nm for excitation and 5 nm for emission. […] Following signal stabilization, bacterial suspension (10 µl, OD600 nm adjusted to 4) or liposomes suspension (100 µM lipid final concentration) composed of cardiolipid/PG (1∶1 M/M) was added to the cuvette and the change in signal was monitored over time.
# GBS dltA mutant = assay: Rhodamine-labeled peptide fluorescence self-quenching on addition of bacteria (aggregation), dltA; type: cell-based, Streptococcus agalactiae; conditions: rhodamine-labeled peptide 1 µM
# From the text: as §2
# Real time tracking of the changes in the fluorescent signal of rhodamine or NBD labeled peptides was performed using an SLM-Aminco Bowman series 2-luminescence spectrophotometer (SLM-Aminco, Rochester, NY, USA) at room temperature. Typical spectral bandwidths were 5 nm for excitation and 5 nm for emission. […] The peptides were placed in a 5×5-mm quartz cuvette with constant magnetic stirring. Following signal stabilization, bacterial suspension (10 µl, OD600 nm adjusted to 4) or liposomes suspension (100 µM lipid final concentration) composed of cardiolipid/PG (1∶1 M/M) was added to the cuvette and the change in signal was monitored over time.
# [2] = self-quenching (aggregation) relative to basal signal of the peptide after addition of bacteria, room temperature, means of triplicate measurements from two independent experiments
Compound,"MIC90, WT (GBS NEM316 WT strain) [µM]","MIC90, ΔdltA (GBS ΔdltA mutant) [µM]",more active against the dltA mutant compared to the WT (fold dilution) (GBS ΔdltA mutant),fold more active on the dltA mutant compared to the WT (GBS ΔdltA mutant) [fold],"MIC90, ΔmprF (GBS ΔmprF mutant) [µM]","MIC90, Δlgt Δlsp (GBS Δlgt Δlsp mutant) [µM]","MIC90, ΔcpsD (GBS ΔcpsD mutant) [µM]","MIC90, ΔsrtA (GBS ΔsrtA mutant) [µM]",Hydrophobicity (% AcN) [1] [% AcN],"Signal change [%], NaCl (16 mM), WT (GBS WT strain) [%]","Signal change [%], NaCl (160 mM), WT (GBS WT strain) [%]","Signal change [%], NaCl (16 mM), dltA (GBS dltA mutant; [2]) [%]","Signal change [%], NaCl (160 mM), dltA (GBS dltA mutant; [2])","Difference in signal change [%], NaCl (160 mM), Δ(dltA-WT) (GBS dltA mutant; difference in the signal change between dltA strain to the WT strain) [%]"
CC(C)CCCCC(=O)N[C@@H](CCN)C(=O)N[C@H](C(=O)N[C@@H](CCN)C(=O)N[C@H]1CCNC(=O)[C@H]([C@@H](C)O)NC(=O)[C@H](CCN)NC(=O)[C@H](CCN)NC(=O)[C@H](CC(C)C)NC(=O)[C@@H](CC(C)C)NC(=O)[C@H](CCN)NC1=O)[C@@H](C)O ({Heptanoyl(6-Me)}-[Dab]T[Dab][Dab][Dab][dL]L[Dab][Dab]T; lactam 4-C; N-terminus assumed),>221.6,13.9,> 2,8,>221.6,>221.6,>221.6,>221.6,,,,,,
CC(C)C[C@H](NC(=O)[C@H](CC(C)C)NC(=O)[C@H](CCCCN)NC(=O)[C@H](CC(C)C)NC(=O)[C@H](CC(C)C)NC(=O)[C@H](CC(C)C)NC(=O)[C@H](CCCCN)NC(=O)[C@H](CC(C)C)NC(=O)[C@H](CC(C)C)NC(=O)[C@H](CCCCN)NC(=O)[C@@H](N)CCCCN)C(=O)N[C@@H](CCCCN)C(N)=O [K5L7] (H-KKLLKLLLKLLK-NH2),25,25,,,,,,,,,,,,
CC(C)C[C@H](NC(=O)[C@H](CC(C)C)NC(=O)[C@H](CCCCN)NC(=O)[C@H](CC(C)C)NC(=O)[C@H](CC(C)C)NC(=O)[C@H](CCCCN)NC(=O)[C@H](CCCCN)NC(=O)[C@H](CC(C)C)NC(=O)[C@H](CC(C)C)NC(=O)[C@H](CCCCN)NC(=O)[C@H](CCCCN)NC(=O)[C@H](CC(C)C)NC(=O)[C@H](CC(C)C)NC(=O)[C@H](CCCCN)NC(=O)[C@@H](N)CC(C)C)C(N)=O [K6L9] (H-LKLLKKLLKKLLKLL-NH2; N-terminus assumed),35.5,17.7,,,17.7,17.7,35.5,35.5,67.2,,,,,
CC(C)C[C@H](NC(=O)[C@H](CCCCN)NC(=O)[C@H](CCCCN)NC(=O)[C@H](CCCCN)NC(=O)[C@H](CC(C)C)NC(=O)[C@H](CCCCN)NC(=O)[C@H](CCCCN)NC(=O)[C@H](CC(C)C)NC(=O)[C@H](CC(C)C)NC(=O)[C@H](CCCCN)NC(=O)[C@H](CCCCN)NC(=O)[C@H](CC(C)C)NC(=O)[C@H](CCCCN)NC(=O)[C@H](CCCCN)NC(=O)[C@@H](N)CC(C)C)C(N)=O [K9L6] (H-LKKLKKLLKKLKKKL-NH2),25,25,,,,,,,,,,,,
CC[C@H](C)[C@H](NC(=O)[C@H](CCCCN)NC(=O)[C@H](CCC(=O)O)NC(=O)[C@H](CCCCN)NC(=O)[C@H](CO)NC(=O)[C@H](CCCCN)NC(=O)[C@H](CCCNC(=N)N)NC(=O)[C@H](Cc1ccccc1)NC(=O)[C@H](Cc1ccccc1)NC(=O)[C@H](CC(=O)O)NC(=O)CNC(=O)[C@H](CC(C)C)NC(=O)[C@@H](N)CC(C)C)C(=O)NCC(=O)N[C@@H](CCCCN)C(=O)N[C@@H](CCC(=O)O)C(=O)N[C@@H](Cc1ccccc1)C(=O)N[C@@H](CCCCN)C(=O)N[C@@H](CCCNC(=N)N)C(=O)N[C@H](C(=O)N[C@H](C(=O)N[C@@H](CCC(N)=O)C(=O)N[C@@H](CCCNC(=N)N)C(=O)N[C@H](C(=O)N[C@@H](CCCCN)C(=O)N[C@@H](CC(=O)O)C(=O)N[C@@H](Cc1ccccc1)C(=O)N[C@@H](CC(C)C)C(=O)N[C@@H](CCCNC(=N)N)C(=O)N[C@@H](CC(N)=O)C(=O)N[C@@H](CC(C)C)C(=O)N[C@H](C(=O)N1CCC[C@H]1C(=O)N[C@@H](CCCNC(=N)N)C(=O)N[C@H](C(=O)N[C@@H](CCC(=O)O)C(=O)N[C@@H](CO)C(N)=O)[C@@H](C)O)C(C)C)[C@@H](C)CC)C(C)C)[C@@H](C)CC [LL-37],>14.2,3.6,,,>14.2,>14.2,>14.2,>14.2,,,,,,
CC[C@H](C)[C@H](NC(=O)CN)C(=O)NCC(=O)N[C@@H](CCCCN)C(=O)N[C@@H](Cc1ccccc1)C(=O)N[C@@H](CC(C)C)C(=O)N[C@@H](Cc1c[nH]cn1)C(=O)N[C@@H](CO)C(=O)N[C@@H](C)C(=O)N[C@@H](CCCCN)C(=O)N[C@@H](CCCCN)C(=O)N[C@@H](Cc1ccccc1)C(=O)NCC(=O)N[C@@H](CCCCN)C(=O)N[C@@H](C)C(=O)N[C@@H](Cc1ccccc1)C(=O)N[C@H](C(=O)NCC(=O)N[C@@H](CCC(=O)O)C(=O)N[C@H](C(=O)N[C@@H](CCSC)C(=O)N[C@@H](CC(N)=O)C(=O)N[C@@H](CO)C(N)=O)[C@@H](C)CC)C(C)C [Magainin 2] (H-GIGKFLHSAKKFGKAFVGEIMNS-NH2),>25.5,6.4,,,>25.5,>25.5,>25.5,>25.5,,,,,,
CC[C@H](C)CCCCC(=O)N[C@@H](CCN)C(=O)N[C@H](C(=O)N[C@@H](CCN)C(=O)N[C@H]1CCNC(=O)[C@H]([C@@H](C)O)NC(=O)[C@H](CCN)NC(=O)[C@H](CCN)NC(=O)[C@H](CC(C)C)NC(=O)[C@@H](Cc2ccccc2)NC(=O)[C@H](CCN)NC1=O)[C@@H](C)O [Polymyxin B] (X1-[Dab]T[Dab][Dab][Dab][dF]L[Dab][Dab]T; lactam 4-C (inferred); N-terminus assumed),92.4,5.8,> 2,8,92.4,92.4,92.4,92.4,53.2,,,,,
"CH3(CH2)6CO-KKLLKLLLKLLK-NH2 [C8-K5L7, lipopeptide: K5L7 coupled to a short fatty acid]",3,3,,,,,,,61.4,,,,,
Rho-LL37: rhodamine-labeled LL37 (N-terminus),,,,,,,,,,−60.8,−26.6,−58.6,−32.7 ^c %,6.1
